# From ChEMBL document CHEMBL5331107 (J Med Chem, 2023)
# What was measured:
# [1] = system: Human immunodeficiency virus 1; test: Antiviral activity against NNRTI-resistant HIV-1 harboring K103N mutant infected in human MT4 cells assessed as protection against virus-induced cytopathic effect incubated for 5 days by MTT assay; format: functional, organism-based; conditions: Human immunodeficiency virus 1, MT4, 120 h
# [2] = system: Human immunodeficiency virus 1; test: Antiviral activity against NNRTI-resistant HIV-1 harboring E138K mutant infected in human MT4 cells assessed as protection against virus-induced cytopathic effect incubated for 5 days by MTT assay; format: functional, organism-based; conditions: Human immunodeficiency virus 1, MT4, 120 h
# [3] = Cytotoxicity against human MT4 cells assessed as reduction in cell viability incubated for 5 days by MTT assay; format: toxicity, cell-based; conditions: time 5 day
# [4] = system: Human immunodeficiency virus 1; test: Antiviral activity against NNRTI-resistant HIV-1 harboring L100I mutant infected in human MT4 cells assessed as protection against virus-induced cytopathic effect incubated for 5 days by MTT assay; format: functional, organism-based; conditions: Human immunodeficiency virus 1, MT4, 120 h
# [5] = system: Human immunodeficiency virus 1; format: functional, organism-based; conditions: Human immunodeficiency virus 1, MT4, 120 h
# [6] = system: Human immunodeficiency virus 1; format: functional, organism-based; conditions: Human immunodeficiency virus 1, MT4, 120 h; remark: listed apart in the source
# [7] = system: Human immunodeficiency virus 1; test: Antiviral activity against NNRTI-resistant HIV-1 harboring F227L and V106A double mutant infected in human MT4 cells assessed as protection against virus-induced cytopathic effect incubated for 5 days by MTT assay; format: functional, organism-based; conditions: Human immunodeficiency virus 1, MT4, 120 h
# [8] = system: Human immunodeficiency virus 1; format: functional, organism-based; conditions: Human immunodeficiency virus 1, MT4, 120 h; remark: listed apart in the source
# [9] = target: Human immunodeficiency virus type 1 reverse transcriptase (Human immunodeficiency virus 1, UniProt Q72547); test: Inhibition of HIV-1 reverse transcriptase assessed as assessed as reduction of biotin-dUTP incorporation into […] incubated for 1 hrs by ELISA analysis
# in vitro [10] = conditions: human, MT4 cells
# Description: Selectivity index, ratio of CC50 for cytotoxicity against human MT4 cells to EC50 for antiviral activity against wildtype HIV-1 IIIB infected in human MT4 cells
# in vitro [11] = conditions: human, MT4 cells; remark: listed apart in the source
# Description: Selectivity index, ratio of CC50 for cytotoxicity against human MT4 cells to EC50 for antiviral activity against NNRTI-resistant HIV-1 harboring K103N mutant infected in human MT4 cells
# in vitro [12] = conditions: human, MT4 cells; remark: listed apart in the source
# Description: Selectivity index, ratio of CC50 for cytotoxicity against human MT4 cells to EC50 for antiviral activity against NNRTI-resistant HIV-1 harboring E138K mutant infected in human MT4 cells
# in vitro [13] = conditions: human, MT4 cells; remark: listed apart in the source
# Description: Selectivity index, ratio of CC50 for cytotoxicity against human MT4 cells to EC50 for antiviral activity against NNRTI-resistant HIV-1 harboring L100I mutant infected in human MT4 cells
# in vitro [14] = conditions: human, MT4 cells; remark: listed apart in the source
# Description: Selectivity index, ratio of CC50 for cytotoxicity against human MT4 cells to EC50 for antiviral activity against NNRTI-resistant HIV-1 harboring Y181C mutant infected in human MT4 cells
# in vitro [15] = conditions: human, MT4 cells; remark: listed apart in the source
# Description: Selectivity index, ratio of CC50 for cytotoxicity against human MT4 cells to EC50 for antiviral activity against NNRTI-resistant HIV-1 harboring Y188L mutant infected in human MT4 cells
# in vitro [16] = conditions: human, MT4 cells; remark: listed apart in the source
# Description: Selectivity index, ratio of CC50 for cytotoxicity against human MT4 cells to EC50 for antiviral activity against NNRTI-resistant HIV-1 harboring F227L and V106A mutant infected in human MT4 cells
# in vitro [17] = conditions: human, MT4 cells; remark: listed apart in the source
# Description: Selectivity index, ratio of CC50 for cytotoxicity against human MT4 cells to EC50 for antiviral activity against NNRTI-resistant HIV-1 harboring K103N and Y181C mutant infected in human MT4 cells
# [18] = system: Human immunodeficiency virus 1; test: microbe, parasite or virus in culture; conditions: Human immunodeficiency virus 1, IIIB, MT4, 120 h
# Description: Antiviral activity against wild type HIV-1 IIIB infected in human MT4 cells assessed as protection against virus-induced cytopathic effect incubated for 5 days by MTT assay
# [19] = Water solubility of the compound in phosphate buffer at pH 7.4; conditions: buffer
# [20] = Metabolic stability in human liver microsomes assessed as half-life incubated for 60 mins in the presence of NADPH by LC-MS/MS analysis; format: ADME, Microsome; conditions: microsomes, 1 h
# [21] = Metabolic stability in human liver microsomes assessed as intrinsic clearance incubated for 60 mins in the presence of NADPH by LC-MS/MS analysis; conditions: microsomes
# [22] = Metabolic stability in human liver assessed as intrinsic clearance incubated for 60 mins in the presence of NADPH by LC-MS/MS analysis; format: ADME, tissue-based; conditions: read-out: CLH
# [23] = Metabolic stability in human liver microsomes assessed as compound remaining measured after 60 mins in the presence of NADPH by LC-MS/MS analysis; format: ADME, Microsome; conditions: microsomes, 1 h
SMILES,EC50 [1],EC50 [2],CC50 at 120 h [3],EC50 [4],EC50 [5],EC50 [6],EC50 [7],EC50 [8],IC50 [9],selectivity ratio (in vitro [10]),selectivity ratio (in vitro [11]),selectivity ratio (in vitro [12]),EC50 [18],also measured
Cc1cc(C#N)cc(C)c1Oc1nc(Nc2ccc(C#N)cc2)nc2c1CN(Cc1ccc(S(C)(=O)=O)cc1)CC2,8.72 nM,43.3 nM,> 221 µM,160 nM,41.3 nM,36.6 nM,234 nM,118 nM,234 nM,> 25400,> 25400,> 5110,8.7 nM,selectivity ratio (in vitro [13]): > 1380; selectivity ratio (in vitro [14]): > 5360; selectivity ratio (in vitro [15]): > 6050; selectivity ratio (in vitro [16]): > 944; selectivity ratio (in vitro [17]): > 1880
C=CC(=O)N1CCc2nc(Nc3ccc(C#N)cc3)nc(Oc3c(C)cc(C#N)cc3C)c2C1,11.7 nM,45.3 nM,11.1 µM,44.2 nM,47.4 nM,50.7 nM,134 nM,138 nM,71 nM,1370,956,246,8.12 nM,selectivity ratio (in vitro [13]): 252; selectivity ratio (in vitro [14]): 235; selectivity ratio (in vitro [15]): 220; selectivity ratio (in vitro [16]): 83; selectivity ratio (in vitro [17]): 81
COc1cccc(C(=O)N2CCc3nc(Nc4ccc(C#N)cc4)nc(Oc4c(C)cc(C#N)cc4C)c3C2)c1,8.01 nM,33.3 nM,4.78 µM,–,–,–,–,–,180 nM,653,597,144,7.32 nM,–
COc1ccc(C(=O)N2CCc3nc(Nc4ccc(C#N)cc4)nc(Oc4c(C)cc(C#N)cc4C)c3C2)cc1,9.56 nM,47.5 nM,32.4 µM,–,–,–,–,–,211 nM,4800,3390,682,6.76 nM,–
Cc1cc(C#N)cc(C)c1Oc1nc(Nc2ccc(C#N)cc2)nc2c1CN(Cc1ccc(S(N)(=O)=O)cc1)CC2,7.56 nM,39.7 nM,> 221 µM,72.6 nM,34.4 nM,31.8 nM,135 nM,89.9 nM,126 nM,> 33400,> 29200,> 5570,6.62 nM,selectivity ratio (in vitro [13]): > 3040; selectivity ratio (in vitro [14]): > 6430; selectivity ratio (in vitro [15]): > 6940; selectivity ratio (in vitro [16]): > 1640; selectivity ratio (in vitro [17]): > 2460
Cc1cc(C#N)cc(C)c1Oc1nc(Nc2ccc(C#N)cc2)nc2c1CN(C(=O)c1cccc(C(F)(F)F)c1)CC2,36.1 nM,152 nM,> 220 µM,–,–,–,–,–,313 nM,> 7930,> 6090,> 1450,27.7 nM,–
Cc1cc(C#N)cc(C)c1Oc1nc(Nc2ccc(C#N)cc2)nc2c1CN(Cc1ccccc1)CC2,27.6 nM,103 nM,52.1 µM,–,–,–,–,–,225 nM,2740,1890,507,19.1 nM,–
Cc1ccc(C(=O)N2CCc3nc(Nc4ccc(C#N)cc4)nc(Oc4c(C)cc(C#N)cc4C)c3C2)cc1,7.14 nM,23.5 nM,> 243 µM,94.6 nM,49.7 nM,50.5 nM,314 nM,182 nM,236 nM,> 34300,> 34000,> 10300,7.08 nM,selectivity ratio (in vitro [13]): > 2570; selectivity ratio (in vitro [14]): > 4890; selectivity ratio (in vitro [15]): > 4810; selectivity ratio (in vitro [16]): > 774; selectivity ratio (in vitro [17]): > 1340
COC(=O)c1ccc(C(=O)N2CCc3nc(Nc4ccc(C#N)cc4)nc(Oc4c(C)cc(C#N)cc4C)c3C2)cc1,45.8 nM,274 nM,> 224 µM,–,–,–,–,–,237 nM,> 10600,> 4890,> 817,21.1 nM,–
Cc1cc(C#N)cc(C)c1Oc1nc(Nc2ccc(C#N)cc2)nc2c1CN(C(=O)c1cccc(F)c1)CC2,9.5 nM,33 nM,5.02 µM,–,–,–,–,–,207 nM,551,529,152,9.12 nM,–
Cc1cc(C#N)cc(C)c1Oc1nc(Nc2ccc(C#N)cc2)nc2c1CN(C(=O)c1cccc(C#N)c1)CC2,10.4 nM,40 nM,> 238 µM,–,–,–,–,–,161 nM,> 30600,> 22800,> 5950,7.77 nM,–
Cc1cc(C#N)cc(C)c1Oc1nc(Nc2ccc(C#N)cc2)nc2c1CN(C(=O)c1ccc(F)cc1)CC2,8.97 nM,24.1 nM,6.51 µM,–,–,–,–,–,154 nM,736,726,270,8.84 nM,–
Cc1cc(C#N)cc(C)c1Oc1nc(Nc2ccc(C#N)cc2)nc2c1CN(S(=O)(=O)N(C)C)CC2,8.19 nM,30.5 nM,62.8 µM,–,–,–,–,–,84 nM,7910,7670,2060,7.94 nM,–
Cc1cc(C#N)cc(C)c1Oc1nc(Nc2ccc(C#N)cc2)nc2c1CN(C(=O)c1ccc([N+](=O)[O-])cc1)CC2,9.81 nM,32.9 nM,> 229 µM,120 nM,48.3 nM,44.6 nM,270 nM,156 nM,146 nM,> 30000,> 23400,> 6960,7.65 nM,selectivity ratio (in vitro [13]): > 1910; selectivity ratio (in vitro [14]): > 4740; selectivity ratio (in vitro [15]): > 5130; selectivity ratio (in vitro [16]): > 848; selectivity ratio (in vitro [17]): > 1470
Cc1cc(C#N)cc(C)c1Oc1nc(Nc2ccc(C#N)cc2)nc2c1CN(C(=O)c1ccc(C(F)(F)F)cc1)CC2,44 nM,132 nM,> 220 µM,–,–,–,–,–,297 nM,> 7640,> 5000,> 1670,28.8 nM,–
Cc1cc(C#N)cc(C)c1Oc1nc(Nc2ccc(C#N)cc2)nc2c1CN(Cc1ccc(B(O)O)cc1)CC2,15.5 nM,55.7 nM,11.8 µM,–,–,–,–,–,180 nM,787,758,211,14.9 nM,–
Cc1cc(C#N)cc(C)c1Oc1nc(Nc2ccc(C#N)cc2)nc2c1CNCC2,3.09 nM,5.61 nM,19.7 µM,33.2 nM,45.4 nM,19.5 nM,136 nM,383 nM,57 nM,10400,6380,3520,1.89 nM,selectivity ratio (in vitro [13]): 595; selectivity ratio (in vitro [14]): 435; selectivity ratio (in vitro [15]): 1010; selectivity ratio (in vitro [16]): 145; selectivity ratio (in vitro [17]): 51
Cc1cc(C#N)cc(C)c1Oc1nc(Nc2ccc(C#N)cc2)nc2c1CN(C(=O)c1cccc([N+](=O)[O-])c1)CC2,7.15 nM,43 nM,> 229 µM,–,–,–,–,–,169 nM,> 28600,> 32100,> 5330,8 nM,–
Cc1cc(C#N)cc(C)c1Oc1nc(Nc2ccc(C#N)cc2)nc2c1CN(C(=O)c1ccc(C#N)cc1)CC2,16.2 nM,46.8 nM,> 238 µM,–,–,–,–,–,154 nM,> 23000,> 14700,> 5090,10.3 nM,–
O=C1Nc2ccc(Cl)cc2[C@@](C#CC2CC2)(C(F)(F)F)O1 [EFAVIRENZ],133 nM,6.82 nM,> 6.35 µM,753 nM,7.87 nM,425 nM,–,433 nM,–,–,–,–,–,–
Cc1ccnc2c1NC(=O)c1cccnc1N2C1CC1 [NEVIRAPINE],7790 nM,205 nM,> 15 µM,2290 nM,8950 nM,> 15000 nM,> 15000 nM,> 15000 nM,–,–,–,–,155 nM,–
Cc1cc(/C=C/C#N)cc(C)c1Nc1ccnc(Nc2ccc(C#N)cc2)n1 [RILPIVIRINE],–,–,–,–,–,–,–,–,–,–,–,–,–,solubility [19]: < 1 µg/mL; t1/2 [20]: 12.8 min; microsomal CLint at 1 h [21]: 108 µL/min/mg; CLint scaled [22]: 97.6 mL/min/kg; Stability [23]: 21%
